Source: the supplement of paper PMC13380429
± gives the standard deviation of the averaged measurements.

Tests used:
Details in all cases: 72 h
Caco-2 [1] = test: cell viability relative to DMSO; higher = less toxic
Calu-3 [2] = test: as above
HepG2 [3] = test: as above
U2OS [4] = test: as above
Vero E6 [5] = test: as above
Caco-2 [6] = test: relative viability EC50 (midpoint between 100% and the lowest measured viability); higher = less toxic
Calu-3 [7] = test: as above
HepG2 [8] = test: as above
U2OS [9] = test: as above
Vero E6 [10] = test: as above
Caco-2 [11] = test: drug sensitivity score (DSS) for viability; higher = more toxic; extreme values may be limits of the assay
Calu-3 [12] = test: as above
HepG2 [13] = test: as above
U2OS [14] = test: as above
Vero E6 [15] = test: as above

Compound	cell viability (Caco-2 [1]; 1 nM) [%]	cell viability (Caco-2 [1]; 10 nM) [%]	cell viability (Caco-2 [1]; 100 nM) [%]	cell viability (Caco-2 [1]; 1000 nM) [%]	cell viability (Caco-2 [1]; 10000 nM) [%]	cell viability (Calu-3 [2]; 1 nM) [%]	cell viability (Calu-3 [2]; 10 nM) [%]	cell viability (Calu-3 [2]; 100 nM) [%]	cell viability (Calu-3 [2]; 1000 nM) [%]	cell viability (Calu-3 [2]; 10000 nM) [%]	cell viability (HepG2 [3]; 1 nM) [%]	cell viability (HepG2 [3]; 10 nM) [%]	cell viability (HepG2 [3]; 100 nM) [%]	cell viability (HepG2 [3]; 1000 nM) [%]	cell viability (HepG2 [3]; 10000 nM) [%]	cell viability (U2OS [4]; 1 nM) [%]	cell viability (U2OS [4]; 10 nM) [%]	cell viability (U2OS [4]; 100 nM) [%]	cell viability (U2OS [4]; 1000 nM) [%]	cell viability (U2OS [4]; 10000 nM) [%]	cell viability (Vero E6 [5]; 1 nM) [%]	cell viability (Vero E6 [5]; 10 nM) [%]	cell viability (Vero E6 [5]; 100 nM) [%]	cell viability (Vero E6 [5]; 1000 nM) [%]	cell viability (Vero E6 [5]; 10000 nM) [%]	relative viability EC50 (Caco-2 [6]) [µM]	relative viability EC50 (Calu-3 [7]) [µM]	relative viability EC50 (HepG2 [8]) [µM]	relative viability EC50 (U2OS [9]) [µM]	relative viability EC50 (Vero E6 [10]) [µM]	drug sensitivity score (Caco-2 [11])	drug sensitivity score (Calu-3 [12])	drug sensitivity score (HepG2 [13])	drug sensitivity score (U2OS [14])	drug sensitivity score (Vero E6 [15])
Cc1ccccc1-c1cc(N2CCN(C)CC2)ncc1N(C)C(=O)C(C)(C)c1cc(C(F)(F)F)cc(C(F)(F)F)c1 [netupitant]	93.2	92.6	91.5	96	95.2	94.8	101	105	112	102	95	98.2	104	97.9	95.6	102	99	101	99.4	96.5	106	108	103	104	97.5	> 10	> 10	> 10	> 10	> 10	0	0	0	0	0
CO[C@H]1C[C@H](O[C@H]2CC[C@@]3(C)[C@H](CC[C@@H]4[C@@H]3CC[C@]3(C)[C@@H](C5=CC(=O)OC5)[C@@H](OC(C)=O)C[C@]43O)C2)O[C@@H](C)[C@@H]1O [oleandrin]	98.1	79.5	17.8	19.5	20.9	102	89.3	31.6	18.4	17.4	102	107	38.1	7.4	6.4	104	98.4	10.8	7.3	9.5	101	87.5	1.1	1.1	1.3	0.0155	0.0355	0.0769	0.0334	0.0214	28.6	24.5	24.1	28.1	32.3
Fc1ccc([C@@H]2CCNC[C@H]2COc2ccc3c(c2)OCO3)cc1 [paroxetine]	85.8	102	111	98.6	82.1	95.9	87.4	93.1	85.1	108	117	120	108	83.7	102	97.7	96.4	103	98	101	95.9	104	98.7	101	100	> 10	> 10	> 10	> 10	> 10	0.6	0	0	0	0
C[C@H]1COc2c(C3(N)CC3)c(F)cc3c(=O)c(C(=O)O)cn1c23 [pazufloxacin]	103	93.5	90.3	99.2	102	96.9	98.7	90.6	101	89.3	88.8	107	101	98.9	99.4	103	103	100	99.9	97.3	93.7	103	103	94.6	99.2	> 10	> 10	> 10	> 10	> 10	0	0	0	0	0
CC(C)NCC(O)COc1cccc2[nH]ccc12 (stereo not given) [pindolol]	117	100	122	101	90.9	98.8 ± 1.1	97 ± 6.8	100.4 ± 0.28	103.8 ± 0.92	102 ± 15	111 ± 10	90 ± 12	105 ± 0.14	85.5 ± 29	103 ± 8.6	103 ± 5	101 ± 2.3	99.5 ± 3.3	102.5 ± 0.35	103 ± 0.14	99.2 ± 1.3	95.8 ± 1.4	96.1 ± 9.6	98.8 ± 2.1	95 ± 11	> 10	> 10	> 10	> 10	> 10	0	0	0	0	0
CN1CCN(CC(=O)N2c3ccccc3C(=O)Nc3cccnc32)CC1 [pirenzepine]	85.5	103	99.9	93.9	95	97.5	87.3	104	96.3	103	113	99.9	88.9	103	97.7	96.1	93.8	99.6	98.7	101	103	101	98.4	103	102	> 10	> 10	> 10	> 10	> 10	0	0	0	0	0
NS(=O)(=O)c1cc(C(=O)O)cc(N2CCCC2)c1Oc1ccccc1 [piretanide]	90.2	97.4	106	104	110	90	98.7	90.5	94.8	101	101	99.7	85.1	105	110	95.5	96.7	101	98.4	103	98.5	100	93.3	101	105	> 10	> 10	> 10	> 10	> 10	0	0	0	0	0
